Measurements taken from patent publication US7273885B2, “Inhibitors of serine proteases, particularly HCV NS3-NS4A protease” (Vertex Pharmaceuticals Incorporated, priority 2002, dated 2007).

What was measured:
[1] = test system: Cells containing hepatitis C virus (HCV) replicon; test: HCV replicon cell assay (Taqman RT-PCR of HCV RNA); format: cell-based; details: 50% inhibition of HCV RNA level, 48-hour incubation, HCV replicon cells, read-out: IC50
Description: HCV Replicon Cell Assay Protocol
Cells containing hepatitis C virus (HCV) replicon were maintained in DMEM containing 10% fetal bovine serum (FBS), 0.25 mg per ml of G418, with appropriate supplements (media A).
On day 1, replicon cell monolayer was treated with a trypsin:EDTA mixture, removed, and then media A was diluted into a final concentration of 100,000 cells per ml wit. 10,000 cells in 100 ul were plated into each well of a 96-well tissue culture plate, and cultured overnight in a tissue culture incubator at 37° C.
On day 2, compounds (in 100% DMSO) were serially diluted into DMEM containing 2% FBS, 0.5% DMSO, with appropriate supplements (media B). The final concentration of DMSO was maintained at 0.5% throughout the dilution series.
Media on the replicon cell monolayer was removed, and then media B containing various concentrations of compounds was added. Media B without any compound was added to other wells as no compound controls.
Cells were incubated with compound or 0.5% DMSO in media B for 48 hours in a tissue culture incubator at 37° C. At the end of the 48-hour incubation, the media was removed, and the replicon cell monolayer was washed once with PBS and stored at −80° C. prior to RNA extraction.
Culture plates with treated replicon cell monolayers were thawed, and a fixed amount of another RNA virus, such as Bovine Viral Diarrhea Virus (BVDV) was added to cells in each well. RNA extraction reagents (such as reagents from RNeasy kits) were added to the cells immediately to avoid degradation of RNA. Total RNA was extracted according the instruction of manufacturer with modification to improve extraction efficiency and consistency. Finally, total cellular RNA, including HCV replicon RNA, was eluted and stored at −80° C. until further processing.
A Taqman real-time RT-PCR quantification assay was set up with two sets of specific primers and probe. One was for HCV and the other was for BVDV. Total RNA extractants from treated HCV replicon cells was added to the PCR reactions for quantification of both HCV and BVDV RNA in the same PCR well. Experimental failure was flagged and rejected based on the level of BVDV RNA in each well. The level of HCV RNA in each well was calculated according to a standard curve run in the same PCR plate. The percentage of inhibition or decrease of HCV RNA level due to compound treatment was calculated using the DMSO or no compound control as 0% of inhibition. The IC50 (concentration at which 50% inhibition of HCV RNA level is observed) was calculated from the titration curve of any given compound.

[2] = target: HCV NS3-NS4A protease (tNS3 with KK4A) (Hepatitis C virus genotype 1a, UniProt P27958); test: HCV Ki assay (HPLC microbore separation of 5AB substrate and products); format: biochemical
Description: HPLC Microbore Method for Separation of 5AB Substrate and Products
• Substrate: • NH2-Glu-Asp-Val-Val-(alpha)Abu-Cys-Ser-Met-Ser-Tyr-COOH
A stock solution of 20 mM 5AB (or concentration of your choice) was made in DMSO w/ 0.2M DTT. This was stored in aliquots at −20 C.
Buffer: 50 mM HEPES, pH 7.8; 20% glycerol; 100 mM NaCl
Total assay volume was 100 μL
The buffer, KK4A, DTT, and tNS3 were combined; distributed 78 μL each into wells of 96 well plate. This was incubated at 30 C for ˜5–10 min.
2.5 μL of appropriate concentration of test compound was dissolved in DMSO (DMSO only for control) and added to each well. This was incubated at room temperature for 15 min.
Initiated reaction by addition of 20 μL of 250 μM 5AB substrate (25 μM concentration is equivalent or slightly lower than the Km for 5AB).
Incubated for 20 min at 30 C.
Terminated reaction by addition of 25 μL of 10% TFA
Transferred 120 μL aliquots to HPLC vials
Separated SMSY product from substrate and KK4A by the following method:
Microbore Separation Method:
Instrumentation: Agilent 1100
• Degasser G1322A • Binary pump G1312A • Autosampler G1313A • Column thermostated chamber G1316A • Diode array detector G1315A Column:
Phenomenex Jupiter; 5 micron C18; 300 angstroms; 150×2 mm; P/O 00F-4053-B0 • Column thermostat: 40 C • Injection volume: 100 μL • Solvent A=HPLC grade water+0.1% TFA • Solvent B=HPLC grade acetonitrile+0.1% TFA
• Stop time: 17 min • Post-run time: 10 min.

Chain of HCV NS3-NS4A protease (tNS3 with KK4A) (P27958 1027-1208): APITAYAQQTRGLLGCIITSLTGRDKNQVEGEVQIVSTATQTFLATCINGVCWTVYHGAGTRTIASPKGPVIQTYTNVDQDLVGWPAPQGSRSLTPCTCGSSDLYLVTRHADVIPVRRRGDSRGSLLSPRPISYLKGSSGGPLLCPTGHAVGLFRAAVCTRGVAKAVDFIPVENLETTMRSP

Structure (SMILES) | IC50 [1] | Ki [2]
CCC[C@H](NC(=O)[C@@H]1C[C@@H]2CCCC[C@@H]2N1C(=O)[C@@H](NC(=O)[C@@H](NC(=O)c1cnccn1)C1CCCCC1)C(C)(C)C)C(=O)C(=O)N[C@@H]1CCOC1 [Compound 47a] | 1 to 5 µM | 0.5 to 1 µM
C=CCNC(=O)C(=O)[C@H](CCC)NC(=O)[C@@H]1C[C@@H]2CCCC[C@@H]2N1C(=O)[C@@H](NC(=O)[C@@H](NC(=O)c1cnccn1)C1CCCCC1)C(C)(C)C [Compound 51a] | 0.5 to 1 µM | < 0.5 µM
CCC[C@H](NC(=O)[C@@H]1C[C@@H]2CCCC[C@@H]2N1C(=O)[C@@H](NC(=O)[C@@H](NC(=O)c1[nH]c(C)c(C(C)=O)c1C#N)C1CCCCC1)C(C)(C)C)C(=O)C(=O)NC1CC1 [Compound 52a] | < 0.5 µM | < 0.5 µM
CCC[C@H](NC(=O)[C@@H]1C[C@@H]2CCCC[C@@H]2N1C(=O)[C@@H](NC(=O)[C@@H](NC(=O)c1[nH]c(C)c(C(C)=O)c1-c1ccccc1)C1CCCCC1)C(C)(C)C)C(=O)C(=O)NC1CC1 [Compound 53a] | < 0.5 µM | < 0.5 µM
CCC[C@@H](NC(=O)[C@@H]1C[C@@H]2CCCC[C@@H]2N1C(=O)[C@@H](NC(=O)[C@@H](NC(=O)c1cnccn1)C1CCCCC1)C(C)(C)C)C(=O)C(=O)NC1CC1 [Compound 60a] | 1 to 5 µM | 1 to 5 µM
CC(=O)c1c(C(=O)N[C@H](C(=O)N[C@H](C(=O)N2[C@H](C(=O)N[C@@H](CC(F)F)C(=O)C(=O)NC3CC3)C[C@@H]3CCCC[C@@H]32)C(C)(C)C)C2CCCCC2)[nH]c(C)c1C [Compound 61a] | < 0.5 µM | < 0.5 µM
CCC[C@H](NC(=O)[C@@H]1[C@@H](C2CCCCC2)CCN1C(=O)[C@@H](NC(=O)[C@@H](NC(=O)c1[nH]c(C)c(C)c1C(C)=O)C1CCCCC1)C(C)(C)C)C(=O)C(=O)NC1CC1 [Compound 63] | 0.5 to 1 µM | < 0.5 µM
CCC[C@H](NC(=O)[C@@H]1[C@@H](C(C)C)CCN1C(=O)[C@@H](NC(=O)[C@@H](NC(=O)c1[nH]c(C)c(C)c1C(C)=O)C1CCCCC1)C(C)(C)C)C(=O)C(=O)NC1CC1 [Compound 64] | < 0.5 µM | < 0.5 µM
CCC[C@H](NC(=O)[C@@H]1[C@H]2CC[C@H](C2)N1C(=O)[C@@H](NC(=O)[C@@H](NC(=O)c1[nH]c(C)c(C)c1C(C)=O)C1CCCCC1)C(C)(C)C)C(=O)C(=O)NC1CC1 [Compound 65] | < 0.5 µM | < 0.5 µM
CCC[C@H](NC(=O)[C@@H]1C[C@@H](Oc2ncc(Cl)cn2)CN1C(=O)[C@@H](NC(=O)[C@@H](NC(=O)c1[nH]c(C)c(C)c1C(C)=O)C1CCCCC1)C(C)(C)C)C(=O)C(=O)NC1CC1 [Compound 67] | < 0.5 µM | < 0.5 µM
CCC[C@H](NC(=O)[C@@H]1[C@H]2CCC[C@H]2CN1C(=O)[C@@H](NC(=O)[C@@H](NC(=O)c1[nH]c(C)c(C)c1C(C)=O)C1CCCCC1)C(C)(C)C)C(=O)C(=O)NC1CC1 [Compound 68] | < 0.5 µM | < 0.5 µM
